Assay [1] concerns cultured human mast cells (CHMC). The experiment in a line: CHMC low cell density IgE activation: tryptase assay. Format: cell-based. As to conditions: read-out: CHMC anti-IgE Tryptase. Put shortly:
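Read-out: tryptase released into supernatant, measured by substrate turnover over 30 min at RT. Low-density CHMC (1000-1500 cells/well, per donor degranulation activity) in MT buffer, 1 hr at 37° C, then anti-IgE challenge 30 min at 37° C.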

The test system is the same in assay [2]. The experiment in a line: CHMC low cell density ionomycin activation: tryptase assay. Type of assay: cell-based. As to conditions: read-out: CHMC Ionomycin Tryptase.
[3] abbreviates: Homo sapiens, Mast cell, Low Density.

pIC50: −log10 of the molar value.

`COc1ccc(Nc2ncc(F)c(Nc3ccc4c(c3)NC(=O)C(CCO)O4)n2)cc1Cl` (stereo not shown) [Compound R908951]: the pIC50 in assay [1] (low cell density) was 7.07; in assay [2] (low cell density) it was 5.26.
The like results for `CCOC(=O)CCn1cc2cc(Nc3ncc(F)c(Nc4ccc(Cl)c(Cl)c4)n3)ccc2n1` [Compound R935447] were, in that order, 6.29 and 5.33.
The like results for `Cn1cc2ccc(Nc3ncc(F)c(Nc4ccc(Cl)c(Cl)c4)n3)cc2n1` [Compound R935444] were, in that order, 6.37 and < 5.00.
For the molecule `O=C(NCC(O)CO)C1Cc2cc(Nc3ncc(F)c(Nc4ccc(OC(F)(F)F)c(Cl)c4)n3)ccc2O1` (mixture of isomers) [Compound R926958], the pIC50 in assay [1] (low cell density) is 6.45; in assay [2] (low cell density) it was < 5.00.
`CNC(=O)COc1cccc(Nc2ncc(F)c(Nc3ccc(OCc4ccccc4)c(Cl)c3)n2)c1` [Compound R926966]: the pIC50 in assay [1] (low cell density) was 6.27; in assay [2] (low cell density) it was < 5.00.
As for `CNC(=O)COc1cccc(Nc2ncc(F)c(Nc3ccc4c(c3)C(N(C)C(=O)OC(C)(C)C)CCO4)n2)c1` (racemic) [Compound R950415], the pIC50 in assay [1] (low cell density) is 5.28; in assay [2] (low cell density), 4.79.
Consider `CNC(=O)COc1cccc(Nc2ncc(F)c(Nc3ccc4c(c3)[C@@H](NC(=O)OCc3ccccc3)CCO4)n2)c1` [Compound R950417], for which the pIC50 in assay [1] (low cell density) was 5.67; in assay [2] (low cell density) it was < 5.00.
The matching figures for `COc1ccc(Nc2nc(Nc3cccc(OCC(=O)NCC(O)CO)c3)ncc2F)cc1Cl` (racemic) [Compound R926964]: 6.43 and < 5.00.
For `Cn1cc2ccc(Nc3ncc(F)c(Nc4ccc5c(c4)NC(=O)C(C)(C)O5)n3)cc2n1` [Compound R935445], the values for the pIC50 in assay [1] (low cell density) and in assay [2] (low cell density) were 6.74 and 4.96, respectively.
For `COC(=O)COc1cccc(Nc2ncc(F)c(Nc3ccc(N4CCOCC4)cc3)n2)c1` [Compound R945361], the pIC50 is 5.63 in assay [1] (low cell density) and < 5.00 in assay [2] (low cell density).
On to `COc1ccc(Nc2nc(Nc3ccc4[nH]ncc4c3)ncc2F)cc1Cl` [Compound R935459], for which the pIC50 in assay [1] (low cell density) was 6.46; in assay [2] (low cell density), 5.33.
The matching figures for `CNC(=O)CCn1cc2cc(Nc3ncc(F)c(Nc4ccc(Cl)c(Cl)c4)n3)ccc2n1` [Compound R935452]: 6.67 and < 5.00.
The matching figures for `Fc1cnc(NC2CC2)nc1Nc1ccc(N2CCOCC2)cc1` [Compound R945357]: < 5.00 and < 5.00.
For `CCN(CC)CCNC(=O)c1ccc(Nc2ncc(F)c(Nc3ccc4c(c3)NC(=O)C(CCO)O4)n2)cc1` (racemic) [Compound R950448], the pIC50 was 5.97 in assay [1] (low cell density) and 4.44 in assay [2] (low cell density).
In the case of `CNC(=O)n1ccc2ccc(Nc3nc(Nc4ccc(OC)c(Cl)c4)ncc3F)cc21` [Compound R927100], the pIC50 in assay [1] (low cell density) was 5.21; in assay [2] (low cell density) it was < 5.00.
Regarding `CN(C)Cc1cc2cc(Nc3ncc(F)c(Nc4ccc(Cl)c(Cl)c4)n3)ccc2o1` [Compound R926980], the pIC50 was 6.17 in assay [1] (low cell density) and 5.26 in assay [2] (low cell density).
As for `CNC(=O)Nc1cccc(Nc2nc(Nc3cc(C)cc(C)c3)ncc2F)n1` [Compound R927098], the pIC50 in assay [1] (low cell density) is 5.82; in assay [2] (low cell density), < 5.00.
`CC(C)(C)OC(=O)NCc1ccc(Nc2ncc(F)c(Nc3ccc(Cl)c(Cl)c3)n2)cc1` [Compound R950458]: the figures for the pIC50 in assay [1] (low cell density) and in assay [2] (low cell density) were 5.88 and 4.92, respectively.
Regarding `Fc1cnc(Nc2ccc(N3CCOCC3)cc2)nc1NC1CC1` [Compound R945356], the figures for the pIC50 in assay [1] (low cell density) and in assay [2] (low cell density) were 5.93 and < 5.00, respectively.
On to `O=C(N[C@H]1CCOc2ccc(Nc3nc(Cl)ncc3F)cc21)OCc1ccccc1` [Compound R950413], for which the pIC50 in assay [1] (low cell density) and in assay [2] (low cell density) was < 5.00 throughout.
Regarding `Cc1cccc(C)c1Nc1ncc(F)c(Nc2ccc3cc[nH]c3c2)n1` [Compound R927088], the pIC50 in assay [1] (low cell density) was 6.93; in assay [2] (low cell density), < 5.00.
As to `Cc1cc(Nc2ncc(F)c(Nc3ccc4c(c3)NC(=O)C(C)(C)O4)n2)cc(C)c1Cl` [Compound R927118], the pIC50 in assay [1] (low cell density) was 7.19; in assay [2] (low cell density), 5.46.
On to `CCOC(=O)CCn1cc2cc(Nc3ncc(F)c(Nc4ccc5c(c4)NC(=O)C(C)(C)O5)n3)ccc2n1` [Compound R935448], for which the results for the pIC50 in assay [1] (low cell density) and in assay [2] (low cell density) were 6.95 and 5.37, respectively.
The matching figures for `Cc1cccc(C)c1Nc1ncc(F)c(Nc2ccc3c(c2)OCCO3)n1` [Compound R927086]: 6.54 and < 5.00.
The like results for `CCOC(=O)CCn1ncc2cc(Nc3ncc(F)c(Nc4ccc(OC)c(Cl)c4)n3)ccc21` [Compound R935460] were, in that order, 6.13 and 4.81.
The matching figures for `COc1c(Cl)cc(Nc2ncc(F)c(Nc3ccc4c(c3)NC(=O)[C@@H](C)O4)n2)cc1Cl` [Compound R908947]: 6.30 and < 5.00.
With `COc1cc(Nc2nc(Nc3ccc(CN)cc3)ncc2F)cc(OC)c1` [Compound R950457], the pIC50 was 5.51 in assay [1] (low cell density) and < 5.00 in assay [2] (low cell density).
With `COc1ccc(Nc2nc(Nc3ccc4oc(CN(C)C)cc4c3)ncc2F)cc1Cl` [Compound R926978], the pIC50 in assay [1] (low cell density) was 6.00; in assay [2] (low cell density), 4.74.
The like results for `O=C(O)C1Cc2cc(Nc3ncc(F)c(Nc4ccc(OC(F)(F)F)c(Cl)c4)n3)ccc2O1` (stereo not shown) [Compound R926957] were, in that order, 5.82 and < 5.00.
Take `COc1cc(Nc2ncc(F)c(Nc3cccc(NC(C)=O)n3)n2)cc(OC)c1` [Compound R927096]: the pIC50 in assay [1] (low cell density) is 6.40; in assay [2] (low cell density), < 5.00.
As to `COc1cc(Nc2ncc(F)c(Nc3ccc(OC)c(Cl)c3)n2)cc(OC)c1` [Compound R927066], the pIC50 in assay [1] (low cell density) was 6.55; in assay [2] (low cell density), 4.82.
The like results for `CCN(CC)CCNC(=O)c1ccc(Nc2ncc(F)c(Nc3ccc4c(c3)C(=O)NC(=O)C4(C)C)n2)cc1` [Compound R950447] were, in that order, 5.85 and < 5.00.
For `CC1(C)C(=O)NC(=O)c2cc(Nc3nc(N[C@@H]4CCCC[C@H]4N)ncc3F)ccc21` [Compound R950442], the pIC50 in assay [1] (low cell density) and in assay [2] (low cell density) was < 5.00 each time.
For `COc1ccc(Nc2nc(Nc3cccc(OCC(=O)NCCO)c3)ncc2F)cc1Cl` [Compound R926963], the pIC50 in assay [1] (low cell density) is 6.81; in assay [2] (low cell density) it was < 5.00.
As to `COc1ccc(Nc2ncc(F)c(NC3CCC3)n2)cc1Cl` [Compound R945395], the results for the pIC50 in assay [1] (low cell density) and in assay [2] (low cell density) were 5.94 and < 5.00, respectively.
The matching figures for `COc1ccc(Nc2ncc(F)c(Nc3ccc4c(c3)NC(=O)C(C)(C)O4)n2)cc1Cl` [Compound R927097]: 6.79 and 6.07.
With `CC1=C(Nc2ncc(F)c(Nc3ccc4c(c3)OCCO4)n2)N(c2ccccc2)CO1` [Compound R926793], the pIC50 in assay [1] (setting [3]) was 5.51; in assay [2] (setting [3]), < 5.00.
As to `Fc1cnc(NC2CCC2)nc1Nc1ccc(N2CCOCC2)cc1` [Compound R945358], the pIC50 in assay [1] (low cell density) and in assay [2] (low cell density) was < 5.00 throughout.
As for `COc1cc(Nc2ncc(F)c(Nc3ccc4c(c3)C(N)CCO4)n2)cc(OC)c1` (racemic) [Compound R950426], the pIC50 in assay [1] (low cell density) was 6.85; in assay [2] (low cell density), 4.52.
`COc1c(Cl)cc(Nc2ncc(F)c(Nc3ccc4c(c3)NC(=O)C(C)(C)O4)n2)cc1Cl` [Compound R927056]: the pIC50 in assay [1] (low cell density) is 6.84; in assay [2] (low cell density), 5.80.
Regarding `NC(=O)c1ccc(Nc2ncc(F)c(Nc3ccc4c(c3)NC(=O)C(CCO)O4)n2)cc1` (racemic) [Compound R950454], the results for the pIC50 in assay [1] (low cell density) and in assay [2] (low cell density) were 5.06 and < 5.00, respectively.
For `OCCCn1ncc2cc(Nc3ncc(F)c(Nc4ccc(Cl)cc4)n3)ccc21` [Compound R935383], the pIC50 in assay [1] (low cell density) is 6.84; in assay [2] (low cell density), < 5.00.
The matching figures for `CNC(=O)n1ccc2ccc(Nc3nc(Nc4cc(OC)cc(OC)c4)ncc3F)cc21` [Compound R926995]: 5.02 and < 5.00.
On to `O=C(NCCO)C1Cc2cc(Nc3ncc(F)c(Nc4ccc(OC(F)(F)F)c(Cl)c4)n3)ccc2O1` (racemic) [Compound R926959], for which the pIC50 in assay [1] (low cell density) was 6.52; in assay [2] (low cell density), < 5.00.
The matching figures for `O=C1COc2ccc(Nc3nc(Nc4ccc5cc[nH]c5c4)ncc3F)nc2N1` [Compound R945443]: 7.09 and < 5.00.
For `CC(C)Oc1ccc(Nc2nc(Nc3ccc4c(c3)C[C@H](C(=O)O[C@@H]3C[C@H](C)CC[C@H]3C(C)C)O4)ncc2F)cc1` [Compound R927062], the pIC50 was 4.81 in assay [1] (low cell density) and < 5.00 in assay [2] (low cell density).
In the case of `COc1cc(Nc2ncc(F)c(Nc3ccc4c(c3)NC(=O)C(C)(C)O4)n2)cc(OC)c1` [Compound R927074], the pIC50 is 7.14 in assay [1] (low cell density) and 5.86 in assay [2] (low cell density).
Take `CC(=O)Nc1cccc(Nc2nc(Nc3cc(C)cc(C)c3)ncc2F)n1` [Compound R927092]: the results for the pIC50 in assay [1] (low cell density) and in assay [2] (low cell density) were 6.42 and < 5.00, respectively.
For the molecule `CC1(C)Oc2ccc(Nc3ncc(F)c(Nc4ccc5cn[nH]c5c4)n3)cc2NC1=O` [Compound R935440], the pIC50 in assay [1] (low cell density) was 6.75; in assay [2] (low cell density), 4.06.
Consider `Fc1cnc(Nc2ccc(OC(F)(F)F)c(Cl)c2)nc1Nc1ccc2c(c1)OCCO2` [Compound R927085], for which the pIC50 in assay [1] (low cell density) is 5.13; in assay [2] (low cell density), < 5.00.
As to `COc1cc(Nc2ncc(F)c(Nc3ccc4cc[nH]c4c3)n2)cc(OC)c1` [Compound R927089], the results for the pIC50 in assay [1] (low cell density) and in assay [2] (low cell density) were 6.84 and < 5.00, respectively.
With `COc1ccc(Nc2nc(Nc3cccc(OCC(=O)NC4CC4)c3)ncc2F)cc1Cl` [Compound R926967], the pIC50 is 6.59 in assay [1] (low cell density) and < 5.00 in assay [2] (low cell density).
Consider `COc1ccc(Nc2nc(Nc3ccc4cn[nH]c4c3)ncc2F)cc1Cl` [Compound R935408], for which the pIC50 in assay [1] (low cell density) is 6.86; in assay [2] (low cell density), 5.00.

Source of the values: US8158621B2, “Methods of treating or preventing autoimmune diseases with 2,4-pyrimidinediamine compounds” (Rigel Pharmaceuticals, Inc., priority 2002, dated 2012).
